Two substances from PMC2965769 (PLoS Pathogens, 2010) can be followed below.

*: point of attachment. X2 = CC(C)CCC[C@@H](C)[C@H]1CC[C@H]2[C@@H]3CC=C4C[C@@H](OC(=O)CCOCCOCCOCCOCCNC(=O)C*)CC[C@]4(C)[C@H]3CC[C@]12C; X1 = CC(C)CCC[C@@H](C)[C@H]1CC[C@H]2[C@@H]3CC=C4C[C@@H](OC(=O)C*)CC[C@]4(C)[C@H]3CC[C@]12C

This test relates to NiV G/F pseudotyped viruses. Conditions: 24 h.

Take “Ac-VALDPIDISIVLNKAKSDLEESKEWIRRSNQKLDSIGSGSGC(X1)-NH2 (N-terminus and C-terminus assumed) [V-chol]”: the IC50 was approximately 0.02 nM.
In turn, “Ac-VALDPIDISIVLNKAKSDLEESKEWIRRSNQKLDSIGSGSGC(X2)-NH2 (N-terminus and C-terminus assumed) [V-PEG4-chol]” yielded an IC50 of approximately 0.02 nM.
